Measured values: patent publication US11382935B2, “Composition for improving cognitive ability and preventing or treating dementia and attention deficit hyperactivity disorder, comprising Galla rhois extract and fraxin as active ingredients” (priority 2018, dated 2022)

Tests used:
[1] = tested on: Superoxide dismutase (SOD); test: Superoxide dismutase (SOD) assay in H2O2-treated HUVECs; type: cell-based, Human; settings: treated before H2O2 treatment
Description: (§1) Human umbilical vein endothelial cells (HUVECs) were treated with each of the 7 types of antioxidants A1-A7, and then an oxidant, hydrogen peroxide, was administered to analyze the degree of cell damage by an MTT assay, and then the activity of superoxide dismutase and catalase was measured.

[2] = tested on: HUVECs; test: Lipid peroxidation (LPO) assay, MDA amount, in H2O2-exposed cells; type: cell-based, Human; settings: cells exposed to H2O2
[3] = tested on: Human umbilical vein endothelial cells (HUVECs); test: Antioxidant activity screening; type: cell-based; settings: screening of components with known antioxidant activity
Description: Compounds used in the antioxidant activity screening of the present invention are A1 to A7 below:
as §1

[4] = DPPH assay of free radical-scavenging activity; type: biochemical; settings: absorbance at 517 nm for 10 minutes
Description: In the present invention, the experiment was carried out with fraxin having a concentration of 0.5 mM, and this concentration is a result of performing an experiment of the free radical-scavenging activity of fraxin using a DPPH assay. A DPPH solution was treated with various concentrations of fraxin (0.02, 0.1 and 0.5 mM), and a change in absorbance was monitored at 517 nm for 10 minutes. The free radical scavenging activity was approximately 10%, 18% or 50% at the fraxin concentration of 0.02, 0.1 or 0.5 mM, respectively, and 0.5 mM was selected for subsequent experiment.

[5] = tested on: HUVECs; test: Production of reactive oxygen species (ROS), DCF fluorescence, in H2O2-treated HUVECs; type: cell-based, Human; settings: for reduction of the H2O2-induced increase in ROS level: H2O2-treated HUVECs, DCF fluorescence, H2O2 increases ROS by 55%; for ROS scavenging effect: HUVECs treated with antioxidant, then hydrogen peroxide
[6] = tested on: Human umbilical vein endothelial cells (HUVECs); test: MTT assay of cell damage in hydrogen peroxide-treated HUVECs (cell regeneration effect); type: cell-based; settings: HUVECs treated with antioxidant, then hydrogen peroxide
Description: as §1

Row | Structure (SMILES) | SOD activity [1] | reduction of the H2O2-induced increase in MDA amount (LPO) [2] | antioxidant activity [3] | free radical scavenging activity ([4]; 0.02 mM) | free radical scavenging activity ([4]; 0.1 mM) [%] | free radical scavenging activity ([4]; 0.5 mM) [%] | reduction of the H2O2-induced increase in ROS level [5] [%] | ROS scavenging effect [5] | cell regeneration effect [6]
1 | COc1cc2ccc(=O)oc2c(O[C@@H]2O[C@H](CO)[C@@H](O)[C@H](O)[C@H]2O)c1O [A3, fraxin] | increase | greatly reduced | highest activity | approximately 10% | ~18 | ~50 | 39 | poor | high
2 | COC(=O)c1cc(O)c(O)c(O)c1 [A4, methyl gallate] |  | greatly reduced |  |  |  |  | 24 | high | high
3 | C[C@@H]1O[C@@H](O[C@@H]2[C@@H](O)[C@H](OCCc3ccc(O)c(O)c3)O[C@H](CO)[C@H]2OC(=O)/C=C/c2ccc(O)c(O)c2)[C@H](O)[C@H](O)[C@H]1O [A6, Acteoside] |  |  |  |  |  |  |  | did not show | did not show
4 | O=C(CC(O)(CC(=O)OCc1ccc(O[C@@H]2O[C@H](CO)[C@@H](O)[C@H](O)[C@H]2O)cc1)C(=O)O)OCc1ccc(O[C@@H]2O[C@H](CO)[C@@H](O)[C@H](O)[C@H]2O)cc1 [A7, 1,3-bis[4-(3-D-glucopyranosyl)benzyl]citrate] |  |  |  |  |  |  |  | did not show | did not show
5 | O=C(O)c1cc(O)c(O)c(O)c1 [gallic acid] |  |  | highest activity |  |  |  |  |  | 
